Our source for the EC50 values is patent US20060045953A1 (priority 2004, published 2006).

Where two headings read alike, the source gives them in different places.

The target of this assay is T1, hT1R1/hT1R3 umami receptor (Homo sapiens, UniProt Q7RTX0+Q7RTX1).
T1 construct: expressed in transfected cells; host or cells: HEK293 derivative stably expressing Gα15, clone I-17, expression induced with mifepristone
T1 sequence (Q7RTX1 21-841): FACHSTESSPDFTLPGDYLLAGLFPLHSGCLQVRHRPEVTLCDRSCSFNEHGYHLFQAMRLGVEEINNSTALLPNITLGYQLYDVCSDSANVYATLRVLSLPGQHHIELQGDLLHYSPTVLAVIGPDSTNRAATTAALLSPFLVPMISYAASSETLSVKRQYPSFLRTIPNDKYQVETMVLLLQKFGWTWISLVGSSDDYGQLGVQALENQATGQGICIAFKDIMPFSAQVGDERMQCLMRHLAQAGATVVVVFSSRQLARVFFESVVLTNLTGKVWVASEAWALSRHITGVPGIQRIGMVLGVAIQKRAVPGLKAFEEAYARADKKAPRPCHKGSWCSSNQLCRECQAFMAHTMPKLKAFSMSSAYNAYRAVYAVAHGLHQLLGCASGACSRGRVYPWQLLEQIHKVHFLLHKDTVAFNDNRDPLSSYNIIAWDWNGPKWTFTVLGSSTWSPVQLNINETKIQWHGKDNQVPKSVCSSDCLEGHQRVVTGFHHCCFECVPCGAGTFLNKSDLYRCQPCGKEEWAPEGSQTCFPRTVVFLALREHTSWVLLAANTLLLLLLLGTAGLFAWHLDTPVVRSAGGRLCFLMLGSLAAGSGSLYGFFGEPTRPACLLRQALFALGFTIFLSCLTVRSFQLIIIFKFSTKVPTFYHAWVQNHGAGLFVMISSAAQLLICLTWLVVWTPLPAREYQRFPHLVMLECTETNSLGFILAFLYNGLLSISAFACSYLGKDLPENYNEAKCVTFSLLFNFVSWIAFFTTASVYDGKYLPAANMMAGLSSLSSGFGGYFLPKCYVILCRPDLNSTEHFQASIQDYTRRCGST
T1 sequence (Q7RTX0 21-852): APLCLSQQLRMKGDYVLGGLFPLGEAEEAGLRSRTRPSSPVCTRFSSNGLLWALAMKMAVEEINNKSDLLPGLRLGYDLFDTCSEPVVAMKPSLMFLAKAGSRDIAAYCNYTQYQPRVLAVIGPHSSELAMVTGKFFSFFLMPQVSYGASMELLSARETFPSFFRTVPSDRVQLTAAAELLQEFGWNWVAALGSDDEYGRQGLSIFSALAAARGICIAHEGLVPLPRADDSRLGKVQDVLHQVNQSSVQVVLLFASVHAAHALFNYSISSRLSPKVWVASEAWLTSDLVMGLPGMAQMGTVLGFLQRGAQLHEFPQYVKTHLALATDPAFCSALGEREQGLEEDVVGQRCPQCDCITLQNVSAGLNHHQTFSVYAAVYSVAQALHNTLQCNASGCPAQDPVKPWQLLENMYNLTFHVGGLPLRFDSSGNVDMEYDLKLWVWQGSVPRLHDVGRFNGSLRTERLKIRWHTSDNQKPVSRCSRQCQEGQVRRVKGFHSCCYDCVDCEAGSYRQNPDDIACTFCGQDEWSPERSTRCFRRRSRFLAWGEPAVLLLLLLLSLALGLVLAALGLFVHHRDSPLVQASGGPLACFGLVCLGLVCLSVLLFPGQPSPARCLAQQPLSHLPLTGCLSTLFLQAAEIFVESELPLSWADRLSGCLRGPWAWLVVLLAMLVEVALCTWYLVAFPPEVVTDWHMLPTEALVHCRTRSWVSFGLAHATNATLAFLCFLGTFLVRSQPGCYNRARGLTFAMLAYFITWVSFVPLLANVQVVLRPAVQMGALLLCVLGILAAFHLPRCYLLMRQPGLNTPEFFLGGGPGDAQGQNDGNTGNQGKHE
Put plainly: In vitro hT1R1/hT1R3 umami taste receptor activation assay (FLIPR, dose response). Format: cell-based. From the text: In order to identify new savory flavoring agents and enhancers, including compounds with savory agonist and enhancer activities (dual activity), the compounds of Formula (I) were screened in primary assays and secondary assays including compound dose response and enhancement assay. In a primary assay for potential ability to modulate umami taste, amide compounds of Formula (I) that can be either savory flavoring agents in their own right or flavor enhancers of MSG are identified and scores of their activities are given as percentage of the maximum MSG intensity (%). In compound dose response, an EC50 is calculated to reflect the potency of the compound as a savory agonist or enhancer.
An HEK293 cell line derivative (See e.g., Chandrashekar, et al., Cell (2000) 100: 703-711) which stably expresses Gα15 and hT1R1/hT1R3 under an inducible promoter (see WO 03/001876 A2) was used to identify compounds with savory tasting properties.
For dose-responses analysis, stimuli were presented in duplicates at 10 different concentrations ranging from 1.5 nM to 30 μM. Activities were normalized to the response obtained with 60 mM monosodium glutamate, a concentration that elicits maximum receptor response. […] Identical results were obtained when analyzing the dose-response data using commercially available software for non-linear regression analysis such as GraphPad PRISM (San Diego, Calif.).

Where [1] appears, read: read-out: EC50 for activation of a hT1R1/hT1R3 umami receptor expressed in an HEK293 cell line.
Where [2] appears, read: Table A, Umami Amides, read-out: Umami EC50.
The mark [3] stands for this setting: Table C, Umami Ureas, read-out: Umami EC50.

As to `CCC(CC)NC(=O)/C=C/c1ccc(OCCO)cc1` [Example 76, N-(1-Ethyl-propyl)-3-[4-(2-hydroxy-ethoxy)-phenyl]-acrylamide], the EC50 under setting [1] was found to be 5800 nM.
The same measure, in the same setting: the same measure for `CCCC(CCC)NC(=O)c1ccc2c(c1)OC(CC(=O)OCC)O2` (centres unmarked) [Example 19, Ethyl 2-(5-(heptan-4-ylcarbamoyl)benzo[d][1,3]dioxol-2-yl)acetate]: 14000 nM.
On to `CCOc1ccc(C(=O)N[C@H]2CCc3ccccc32)cc1C` [Example A113, (S)-N-(2,3-dihydro-1H-inden-1-yl)-4-ethoxy-3-methylbenzamide], for which, under setting [2], the EC50 was found to be 850 nM.
As for `COC(=O)[C@@H](CC(C)C)NC(=O)c1cc2cc(C)ccc2o1` [Example 27, (R)-methyl 4-methyl-2-(5-methylbenzofuran-2-carboxamido)pentanoate], the EC50 under setting [1] turned out to be 110 nM.
On the same count and under the same terms, the result for `COc1ccc(C(=O)N[C@H](CC(C)C)c2nc(C)no2)cc1C` [Example 55, (R)-4-methoxy-3-methyl-N-(3-methyl-1-(3-methyl-1,2,4-oxadiazol-5-yl)butyl)benzamide] reads 5400 nM; that for `CCCC(CCC)NC(=O)c1ccc2oc(C)nc2c1` [Example 40, 2-Methyl-benzooxazole-5-carboxylic acid (1-propyl-butyl)-amide], 330 nM.
Take `COc1cccc(C(=O)NC2CCCc3ccccc32)c1O` (centres unmarked) [Example A87, 2-hydroxy-3-methoxy-N-(1,2,3,4-tetrahydronaphthalen-1-yl)benzamide]: the EC50 under setting [2] turned out to be 540 nM.
`CC(C)C(NC(=O)Nc1ccc2c(c1)OCO2)C(C)C` [Example C19, 1-(benzo[d][1,3]dioxol-5-yl)-3-(2,4-dimethylpentan-3-yl)urea]: the EC50 under setting [3] was 320 nM.
For `Cc1cc(C(=O)NC2CCCc3ccccc32)ccc1O` (centres unmarked) [Example A102, 4-hydroxy-3-methyl-N-(1,2,3,4-tetrahydronaphthalen-1-yl)benzamide], the EC50 under setting [2] stood at 1320 nM.
On to `COc1ccccc1NC(=O)NC(C(C)C)C(C)C` [Example C17, 1-(2,4-dimethylpentan-3-yl)-3-(2-methoxyphenyl)urea], for which, under setting [3], the EC50 is 240 nM.
For the compound `CCCC(NC(=O)c1ccc(OCC)c(C)c1)c1ccc(OC)cc1` (centres unmarked) [Example 116, 4-Ethoxy-N-[1-(4-methoxy-phenyl)-butyl]-3-methyl-benzamide], the EC50 under setting [1] amounted to 3900 nM.
`CC(C)Oc1ccccc1CNC(=O)C(=O)NCCc1ccccn1` [Example B4, N1-(2-isopropoxybenzyl)-N2-(2-(pyridin-2-yl)ethyl)oxalamide]: the EC50 (Table B, Umami Oxalamides, read-out: Umami EC50) was determined as 1220 nM.
For `CCCC(CCC)NC(=O)/C=C/c1ccccc1OC` [Example 86, 3-(2-Methoxy-phenyl)-N-(1-propyl-butyl)-acrylamide], the EC50 under setting [1] came out at 900 nM.
`CCOc1ccc(C(=O)N[C@@H]2CCc3ccccc32)cc1C` [(R)-N-(2,3-dihydro-1H-inden-1-yl)-4-ethoxy-3-methylbenzamide]: for the setting “opposite enantiomers compared, read-out: AFFINITY FOR T1R1/T1R3 SAVORY RECEPTOR EC50 UM”, the EC50 stood at 4530 nM.
As for `CSc1ccccc1NC(=O)NC(C(C)C)C(C)C` [Example C14, 1-(2,4-dimethylpentan-3-yl)-3-(2-(methylthio)phenyl)urea], under setting [3], the EC50 stood at 140 nM.
Turning to `COC(=O)c1ccc(CNC(=O)C(=O)NCCc2ccccn2)cc1` [Example 141, N-((4-Methoxycarbonylphenyl)methyl)-N′-(2-(pyridin-2-yl)ethyl)oxalamide], the EC50 under setting [1] came out at 3630 nM.
As for `Cc1cc(C(=O)NC2CCCCC2C)oc1C` (centres unmarked) [Example A33, 4,5-dimethyl-N-(2-methylcyclohexyl)furan-2-carboxamide], under setting [2], the EC50 amounted to 1330 nM.
As for `COC(=O)[C@@H](CC1CCCCC1)NC(=O)c1cc2cc(OC)ccc2o1` [Example 30, (R)-methyl 3-cyclohexyl-2-(5-methoxybenzofuran-2-carboxamido)propanoate], under setting [1], the EC50 amounted to 1140 nM.
With `CCCC(CC(C)C)NC(=O)c1ccc(OCC)c(C)c1` (centres unmarked) [Example A92, 4-ethoxy-3-methyl-N-(2-methylheptan-4-yl)benzamide], the EC50 under setting [2] was 650 nM.
Consider `O=C(NCCc1ccccn1)C(=O)NCc1ccc2occc2c1` [Example 140, N-(Benzofuran-5-ylmethyl)-N′-(2-(pyridin-2-yl)ethyl)oxalamide], for which the EC50 under setting [1] came out at 1780 nM.
`CCCC(CCC)NC(=O)c1cc2ccccc2o1` [Example 25, benzofuran-2-carboxylic(1-propylbutyl)amide]: the EC50 under setting [1] was determined as 880 nM.
Take `COC(=O)C(CC(C)C)NC(=O)c1cc2ccccc2o1` (stereo in doubt) [Example A5, 2-[(Benzofuran-2-carbonyl)-amino]-4-methyl-pentanoic acid methyl ester]: the EC50 under setting [2] amounted to 310 nM.
Take `COc1cc(C)ccc1NC(=O)NC(C(C)C)C(C)C` [Example C16, 1-(2,4-dimethylpentan-3-yl)-3-(2-methoxy-4-methylphenyl)urea]: the EC50 under setting [3] turned out to be 210 nM.
In the case of `CCC(CC)NC(=O)c1ccc(OC)c(C)c1` [Example 119, 4-methoxy-3-methyl-N-(pentan-3-yl)benzamide], under setting [1], the EC50 is 400 nM.
Still for that read-out and setting: the result for `CC(C)C[C@H](CO)NC(=O)c1ccc2c(c1)OCO2` [Example 8, (R)-N-(1-hydroxy-4-methylpentan-2-yl)benzo [d][1,3]dioxole-5-carboxamide] reads 9000 nM.
As to `CCCC(CC(C)C)NC(=O)c1ccc2oc(C)nc2c1` (centres unmarked) [Example A23, 2-methyl-N-(2-methylheptan-4-yl)benzo[d]oxazole-5-carboxamide], the EC50 under setting [2] worked out at 380 nM.
Consider `COC(=O)[C@@H](CC(C)C)NC(=O)c1ccc(OC)c(F)c1` [Example 60, (R)-methyl 2-(3-fluoro-4-methoxybenzamido)-4-methylpentanoate], for which the EC50 under setting [1] worked out at 300 nM.
In the case of `CCCC(CC(C)C)NC(=O)c1cc2cc(C)ccc2o1` (centres unmarked) [Example A20, 5-methyl-N-(2-methylheptan-4-yl)benzofuran-2-carboxamide], the EC50 under setting [2] was found to be 1320 nM.
Consider `CCC(CC(C)C)NC(=O)Nc1ccc2c(c1)OCO2` (centres unmarked) [Example C25, 1-(benzo[d][1,3]dioxol-5-yl)-3-(5-methylhexan-3-yl)urea], for which the EC50 under setting [3] was found to be 480 nM.
With `CCCC(CCC)NC(=O)c1cccc(CC)c1` [Example A116, 3-ethyl-N-(heptan-4-yl)benzamide], the EC50 under setting [2] is 10 nM.
Take `CCCCC(NC(=O)/C=C/c1ccc(OC)cc1)C(=O)OC` (centres unmarked) [Example D3, (E)-methyl 2-(3-(4-methoxyphenyl)acrylamido)hexanoate]: the EC50 (Table D, Umami Acrylamides, read-out: Umami EC50) came to 630 nM.
Consider `COc1ccc(CNC(=O)c2ccc(-c3ccccn3)s2)c(OC)c1` [Example 109, 5-Pyridin-2-yl-thiophene-2-carboxylic acid 2,4-dimethoxy-benzylamide], for which, under setting [1], the EC50 was found to be 2860 nM.
